PubChem BioAssay (NCI)
Values after ≈ are worked out from the molar mass of the structure shown. Values joined by “and” are separate entries in the source; they are usually repeats but may differ in a detail not shown here. Equal values may be shown once.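 Growth conditions: 96-well plates. Treatment: test compound, 48 hours, 5 concentrations. Analysis: linear interpolation between bracketing concentrations; unreached endpoints set to highest concentration. At the GI50, growth is halved. Definition used: TGI = concentration required for complete inhibition of growth.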

Tests used:
Assay in all cases: NCI anticancer screen, dose series, 48 h
DLD-1 colon = test system: DLD-1 colon
DMS 114 small cell lung = test system: DMS 114 small cell lung
HT29 colon = test system: HT29 colon
K-562 leukemia = test system: K-562 leukemia
MDA-MB-435 = test system: MDA-MB-435
NCI-H226 lung = test system: NCI-H226 lung
OVCAR-8 ovarian = test system: OVCAR-8 ovarian
SF-295 CNS = test system: SF-295 CNS
SNB-78 CNS = test system: SNB-78 CNS

SMILES | TGI (DLD-1 colon) [µM] | TGI (DMS 114 small cell lung) | TGI (HT29 colon) | TGI (K-562 leukemia) | TGI (MDA-MB-435) | TGI (NCI-H226 lung) | TGI (OVCAR-8 ovarian) | TGI (SF-295 CNS) | TGI (SNB-78 CNS) | GI50 (DMS 114 small cell lung) [µg/mL] | GI50 (HT29 colon) | GI50 (K-562 leukemia) | GI50 (NCI-H226 lung) | GI50 (OVCAR-8 ovarian) | GI50 (SF-295 CNS) | GI50 (SNB-78 CNS) | GI50 (DLD-1 colon) [µM]
O=[N+]([O-])c1cc(C(F)(F)F)cc2n[se]nc12 | 8.93 | 5.92 µM | 21.9 µM | 5.14 µM | 4.78 µM | 46.8 µM | 4.25 µM | 25.8 µM | 25.9 µM |  |  |  |  |  |  |  | 
CCCCCCCCCCCCCP(=O)(OC)OC | 30.5 | 37 µM | 34.1 µM | 45.2 µM |  | 35.9 µM | 31.9 µM | 37.1 µM | 35.5 µM |  |  |  |  |  |  |  | 
CC(O)(c1ccc(OCCC[N+](C)(C)C)cc1)C(C)(O)c1ccc(OCCC[N+](C)(C)C)cc1 (centres undefined) | > 100 | > 100 µM | > 100 µM | > 100 µM |  | > 100 µM | > 100 µM | > 100 µM | > 100 µM |  |  |  |  |  |  |  | 
O=C(CC1(O)C(=O)Nc2c(Cl)cc(Cl)cc21)c1ccc([N+](=O)[O-])cc1 (centres undefined) | > 66 | 53.1 µM | > 100 µM | > 100 µM |  | > 73.3 µM | > 87.9 µM | > 100 µM | > 78.9 µM |  |  |  |  |  |  |  | 
CSC(=NC(=O)c1ccccc1)SCCSC(=NC(=O)c1ccccc1)SC | > 100 | > 100 µM | > 100 µM | > 100 µM |  | > 100 µM | > 100 µM | > 100 µM | > 100 µM |  |  |  |  |  |  |  | 
CC(Oc1ccc2c(=O)cc(-c3ccccc3)oc2c1)C(=O)O (centres undefined) | > 100 | > 100 µM | > 100 µM | > 100 µM |  | > 100 µM | > 100 µM | > 100 µM | > 100 µM |  |  |  |  |  |  |  | 
c1ccc(N2CCN(CCCN3CCc4c([nH]c5ccccc45)C3c3cccnc3)CC2)cc1 (centres undefined) | > 100 | > 100 µM | > 100 µM | > 65.6 µM |  | > 100 µM | > 100 µM | > 100 µM | > 100 µM |  |  |  |  |  |  |  | 
CC1(C)C=C(N2CCN(C3=CC(C)(C)NC(C)(C)C3)CC2)CC(C)(C)N1 | > 100 | > 100 µM | > 100 µM | > 100 µM |  |  | > 100 µM | > 100 µM | > 100 µM |  |  |  |  |  |  |  | 
CN(CCc1ccccn1)/[N+]([O-])=N/O (tested in a mixture with another compound) | > 100 | > 100 µM | > 100 µM | > 100 µM |  | > 100 µM | > 100 µM | > 100 µM | > 100 µM |  |  |  |  |  |  |  | 
CC(=O)CCn1[nH]c(=O)c(Cl)c(Cl)c1=O | > 100 | > 100 µM | > 100 µM | > 100 µM |  | > 100 µM | > 100 µM | > 100 µM | > 100 µM |  |  |  |  |  |  |  | 
COC(=O)/C(=N\Nc1nc(=S)[nH]n1N)C(C#N)c1ccc(Cl)cc1 (centres undefined) | > 100 | > 100 µM | > 100 µM |  |  | > 100 µM | > 100 µM | > 100 µM | > 100 µM |  |  |  |  |  |  |  | 
C=C1CCCC2OC(OC)CCC12 (centres undefined) | > 100 | > 100 µM | > 100 µM | > 100 µM |  | > 100 µM | > 100 µM | > 100 µM | > 100 µM |  |  |  |  |  |  |  | 
CC1=C(C(=O)Nc2ccccc2C)C(c2ccccc2O)C(C(=O)Nc2ccccc2C)=C(C)N1 | 36.1 | 50.4 µM | 64.3 µM | > 100 µM |  | > 100 µM | 40.2 µM | 40.3 µM | 74.7 µM |  |  |  |  |  |  |  | 
CCCc1nn(C)c(CCC(=O)N(Cc2ccccc2)Cc2ccccc2)c1CC | > 100 | > 100 µM | > 100 µM |  |  | > 100 µM | > 100 µM | > 100 µM | > 100 µM |  |  |  |  |  |  |  | 
CCCCCC1CC=CC(NC(=O)OCc2ccccc2)C1/C=C/CCCC1OCCO1 (centres undefined) | > 100 | > 100 µM | > 100 µM | > 100 µM |  | > 100 µM | > 100 µM | > 100 µM | > 100 µM |  |  |  |  |  |  |  | 
CCc1cc2c(Nc3ccccc3)c3c(nc2s1)CCCC3 | > 100 | > 100 µM |  | > 100 µM |  |  | > 100 µM | > 100 µM | > 100 µM |  |  |  |  |  |  |  | 
C=C1C(=O)O[C@H]2C3OC3(C)CC/C=C(/C(=O)OC)[C@@H](OC(C)=O)[C@H](OC(=O)C3(C)OC3C)[C@H]12 (some centres undefined) |  | 1.8 µg/mL | 2.55 µM and 2.3 µM and 4.03 µg/mL | 1.15 µM and 2.25 µM and 1.15 µg/mL | 3.95 µM and 4.99 µM | 3.25 µM and 31 µg/mL | 2.98 µM and 3.01 µg/mL | 14.8 µg/mL | 6.79 µg/mL | 0.604 (≈ 1.3 µM) | 1.29 µM and 1.06 µM and 1.32 µg/mL | 416 nM and 0.359 µg/mL | 1.6 µM and 8.12 µg/mL | 2.13 µM and 699 nM and 0.351 µg/mL | 4.84 µg/mL | 1.81 µg/mL | 
CCN(CC)CCCNc1nccc2c(C)c3[nH]c4ccncc4c(=O)c3cc12 | 21.8 | 2.91 µM | 12.8 µM | 13 µM |  | 10.2 µM | 2.36 µM | 28.4 µM | 13.7 µM |  |  |  |  |  |  |  | 
Nc1nc(N)c(CCCCc2ccccc2)c(/C=C/c2ccc([N+](=O)[O-])cc2)n1 | > 100 | 4.29 µM | 16.2 µM |  |  | 55.6 µM | 12.7 µM | 14.5 µM | 12.8 µM |  |  |  |  |  |  |  | 
O=c1oc2c(O)c(O)cc3c(=O)oc4c(O)c(O)cc1c4c23 | > 100 | > 100 µM | > 100 µM | > 100 µM |  | 57.4 µM | 88.7 µM | > 100 µM | > 100 µM |  | > 100 µM | > 100 µM |  |  | > 100 µM | > 100 µM | > 100
C=C(C)C1CC=C(C)C(O)([C@@]2(O)C[C@H](C(=C)C)CC=C2C)C1 (some centres undefined) | > 100 | > 100 µM | 37.7 µM | 49.4 µM |  |  | 35.5 µM | 48.5 µM | > 100 µM |  |  |  |  |  |  |  | 
CC1(C)C2=CCCC(=O)[C@@]2(C)CC[C@@H]1O | > 100 | > 100 µM | > 100 µM | > 100 µM |  | > 100 µM | > 100 µM | > 100 µM | > 100 µM |  |  |  |  |  |  |  | 
CCCCCCCCCCCCCC(=O)NO | > 94.8 | 27.2 µM | 25.3 µM | 34.8 µM | 67 µM | 19 µM | 50.7 µM | 60.9 µM | > 95 µM |  |  |  |  |  |  |  | 
COc1ccc(C(=O)Nc2ccn(CCOC(=O)c3ccc(OC)cc3)c(=O)n2)cc1 | > 100 | > 100 µM | > 100 µM | > 100 µM |  | > 100 µM | > 100 µM | > 100 µM | > 100 µM |  |  |  |  |  |  |  | 
